Data taken from the supplement of paper PMC10883282.
Structures can show the parent of a compound that is named as a salt.

What was measured:
Assay in all cases: relative viability vs DMSO control (72 h) (fraction); higher = more viable cells
[1] = tested on: A204
Procedure, shortened: (§1)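 Sarcoma cell lines were grown in 384-well plates seeded toward 80–90% confluence and exposed 24 h later to serially diluted compound. After 72 h at 37 °C and 5% CO2, with 0.1% DMSO vehicle and a 5 µM positive control on the plates, ATPLite was read. Relative viability, given as percent growth averaged over up to triplicate wells, was rescaled so that 1 is full and 0 is none.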

[2] = tested on: HS729
Procedure, shortened: as §1

[3] = tested on: KHOS-240S
Procedure, shortened: as §1

[4] = tested on: SW982
Procedure, shortened: as §1

[5] = tested on: SYO-1
Procedure, shortened: as §1

C=C1C[C@@H]2CC[C@@]34C[C@H]5O[C@H]6[C@@H](O3)[C@H]3O[C@H](CC[C@@H]3O[C@H]6[C@H]5O4)CC(=O)C[C@@H]3[C@@H](OC)[C@@H](C[C@H](O)CN)O[C@H]3C[C@H]3O[C@@H](CC[C@@H]1O2)C[C@@H](C)C3=C [Eribulin Mesylate]
relative viability
Conditions	[1]	[2]	[3]	[4]	[5]
1.37 pM	1.12	1.04	1.11	1.061	0.915
4.1 pM	1.12	0.987	1.09	1.08	0.709
12.3 pM	1.09	0.965	1.1	1.05	0.513
37 pM	0.68	0.874	0.9987	1.04	0.388
0.00011 µM	0.596	0.835	0.655	0.801	0.323
0.00033 µM	0.475	0.756	0.504	0.523	0.319
0.001 µM	0.414	0.6663	0.365	0.41	0.312
0.003 µM	0.329	0.583	0.245	0.336	0.354
0.009 µM	0.2412	0.519	0.179	0.307	0.365
0.027 µM	0.224	0.48	0.15	0.309	0.345
460 fM	1.11	1.08	1.07	1.02	1.01

O=S(=O)(c1cccc2cnccc12)N1CCCNCC1 [Fasudil]
relative viability
Conditions	0.00051 µM	0.00152 µM	0.00457 µM	0.01372 µM	0.04115 µM	0.1235 µM	0.3704 µM	1.111 µM	3.333 µM	10 µM
[1]	0.98	1.03	1.02	1.02	1.01	0.987	1.01	0.991	0.973	0.891
[2]	0.949	0.964	1.01	0.949	0.953	0.926	0.974	0.957	0.925	0.855
[3]	0.974	0.976	0.961	0.966	0.957	0.961	0.959	0.952	0.942	0.8862
[4]	0.974	0.974	0.966	0.987	0.976	0.971	0.961	0.977	0.962	0.966
[5]	0.95	0.984	0.954	0.9485	0.963	0.954	0.983	0.97	0.968	0.902

O=C(Nc1nc2cccc(-c3ccc(CN4CCS(=O)(=O)CC4)cc3)n2n1)C1CC1 [Filgotinib]
relative viability
Conditions	[1]	[2]	[3]	[4]	[5]
0.00017 µM	1.09	1.04	1.04	1	0.992
0.00051 µM	1.15	0.993	1.08	1.04	0.995
0.00152 µM	1.07	0.953	1.06	1.06	0.957
0.00457 µM	1.068	0.95	1.08	1.08	0.97
0.01372 µM	1.06	0.938	1.07	1.05	0.907
0.04115 µM	1.14	0.898	1.07	1.06	0.903
0.1235 µM	1.13	0.888	1.03	1.02	0.872
0.3704 µM	1.1	0.934	1.06	1.06	0.843
1.111 µM	1.12	0.906	1.054	1.02	0.7846
3.333 µM	1.14	0.849	1.02	1.06	0.724
10 µM	0.974	0.831	0.932	0.939	0.551

COc1cc(Nc2ncc(F)c(Nc3ccc4c(n3)N(COP(=O)(O)O)C(=O)C(C)(C)O4)n2)cc(OC)c1OC [Fostamatinib]
relative viability
Conditions	[1]	[2]	[3]	[4]	[5]
0.00017 µM	1.07	0.913	1.08	1.05	0.964
0.00051 µM	1.08	0.952	1.08	1.05	0.953
0.00152 µM	1.07	0.938	1.08	1.04	0.969
0.00457 µM	1.07	0.961	1.08	1.06	0.958
0.01372 µM	1.07	0.982	1.07	1.053	0.966
0.04115 µM	1.02	0.914	1.07	1.02	0.922
0.1235 µM	0.954	0.845	1.01	0.822	0.912
0.3704 µM	0.763	0.724	0.892	0.66	0.656
1.111 µM	0.494	0.726	0.559	0.507	0.379
3.333 µM	0.236	0.519	0.196	0.216	0.22
10 µM	0.07	0.586	0.0301	0.128	0.167

Cc1cccc(-c2nn3c(c2-c2ccnc4ccc(C(N)=O)cc24)CCC3)n1 [Galunisertib]
relative viability
Conditions	[1]	[2]	[3]	[4]	[5]
0.00017 µM	1.01	0.993	1.06	1	0.972
0.00051 µM	1.04	0.933	1.07	1.02	0.942
0.00152 µM	0.99	0.948	1.06	0.965	0.913
0.00457 µM	1.03	0.897	1.06	1	0.898
0.01372 µM	0.984	0.901	1.04	0.999	0.867
0.04115 µM	1	0.892	1.01	0.98	0.824
0.1235 µM	1.01	0.898	0.996	0.974	0.783
0.3704 µM	1.02	0.836	0.971	0.977	0.752
1.111 µM	0.996	0.794	0.987	0.988	0.738
3.333 µM	0.996	0.756	0.966	0.98	0.685
10 µM	0.936	0.749	0.929	1.05	0.671

CN1CC[C@@H](NC(=O)Nc2ccc(C#N)cc2)C[C@@H]1c1nc2ccccc2[nH]1 [Glasdegib]
relative viability
Conditions	[1]	[2]	[3]	[4]	[5]
0.00017 µM	1.07	1.07	1.04	0.988	1.032
0.00051 µM	1.074	1.02	1.061	0.993	1.01
0.00152 µM	1.09	1.05	1.08	1	1.01
0.00457 µM	1.06	0.993	1.08	1.03	0.99
0.01372 µM	1.09	1.02	1.06	1	0.973
0.04115 µM	1.06	1.05	1.06	0.971	0.976
0.1235 µM	1.064	1.03	1.05	1.004	0.991
0.3704 µM	1.05	0.984	1.065	0.985	1
1.111 µM	1.04	1.03	1.05	1.02	0.999
3.333 µM	1.02	0.993	1.05	1.02	0.975
10 µM	0.975	1.03	1.03	0.992	0.981

CC(C)NC[C@@H](C(=O)N1CCN(c2ncnc3c2[C@H](C)C[C@H]3O)CC1)c1ccc(Cl)cc1 [Ipatasertib]
relative viability
Conditions	[1]	[2]	[3]	[4]	[5]
0.00017 µM	1.06	1	1.06	0.991	0.95
0.00051 µM	1.08	0.969	1.04	0.985	0.94
0.00152 µM	1.05	0.91	1.05	1.02	0.862
0.00457 µM	1.05	0.916	1.05	1	0.821
0.01372 µM	1.05	0.844	1.06	0.945	0.807
0.04115 µM	0.992	0.849	0.991	0.949	0.776
0.1235 µM	0.953	0.802	1.01	0.962	0.719
0.3704 µM	0.751	0.726	0.938	0.881	0.656
1.111 µM	0.711	0.643	0.87	0.824	0.636
3.333 µM	0.621	0.532	0.823	0.745	0.549
10 µM	0.509	0.49	0.703	0.652	0.504

COC(=O)[C@@]1(O)C[C@H]2O[C@]1(C)n1c3ccccc3c3c4c(c5c6ccccc6n2c5c31)C(=O)NC4 [K-252a]
relative viability
Conditions	[1]	[2]	[3]	[4]	[5]
0.00017 µM	1.06	1.06	1.06	1.05	1.03
0.00051 µM	1.11	1.02	1.05	1.064	0.983
0.00152 µM	1.06	1	1.08	1.079	0.982
0.00457 µM	1.07	0.923	1.06	1.07	0.9645
0.01372 µM	0.941	0.863	1.05	1.02	0.928
0.04115 µM	0.6765	0.754	0.998	0.733	0.862
0.1235 µM	0.527	0.713	0.815	0.559	0.66
0.3704 µM	0.433	0.752	0.553	0.443	0.302
1.111 µM	0.374	0.588	0.346	0.2914	0.137
3.333 µM	0.31	0.356	0.258	0.151	0.128
10 µM	0.0136	0.0254	0.0419	0.0215	0.13

CCC(=O)N1CC[C@H](Nc2ncnc3c2CN(c2cnc(OC)c(C(F)(F)F)c2)CC3)C1 [Leniolisib]
relative viability
Conditions	[1]	[2]	[3]	[4]	[5]
0.00017 µM	1.04	1.07	1.03	1.02	1.03
0.00051 µM	1.06	1.02	1.05	1.05	0.999
0.00152 µM	1	0.964	1.05	1.05	0.984
0.00457 µM	1.04	0.982	1.06	1.05	0.965
0.01372 µM	1.03	0.965	1.05	1.06	0.947
0.04115 µM	1.02	0.95	1.02	1.06	0.949
0.1235 µM	1.01	0.947	1.017	1.02	0.933
0.3704 µM	0.986	0.992	0.997	1.02	0.886
1.111 µM	0.897	0.838	0.975	0.985	0.875
3.333 µM	0.768	0.82	0.9	0.836	0.816
10 µM	0.579	0.675	0.8026	0.678	0.724

C[C@]12O[C@H](C[C@]1(O)CO)n1c3ccccc3c3c4c(c5c6ccccc6n2c5c31)CNC4=O [Lestaurtinib]
relative viability
Conditions	[1]	[2]	[3]	[4]	[5]
0.00017 µM	1.07	1.05	1.086	1.03	1.02
0.00051 µM	1.07	1	1.06	1.03	0.989
0.00152 µM	1.07	1.01	1.1	1.06	0.992
0.00457 µM	1.02	0.932	1.04	1.03	0.991
0.01372 µM	0.967	0.863	1.06	0.895	0.943
0.04115 µM	0.788	0.797	1.05	0.697	0.873
0.1235 µM	0.56	0.757	0.892	0.494	0.644
0.3704 µM	0.378	0.723	0.525	0.381	0.295
1.111 µM	0.321	0.619	0.345	0.314	0.0874
3.333 µM	0.277	0.411	0.169	0.23	0.1
10 µM	0.118	0.207	0.0619	0.0243	0.102
